One experiment has as its system HT-29 cell line. The experiment can be described thus: 3D spheroid tumor formation and growth. To be noted: for effect on tumor formation, treatment before tumor formation: 150 µM; for effect on growing tumors, treatment after spheroid formation: HT-29 spheroids, single dose 72 h after seeding, for additional 72 hours. The format is cell-based, human. As for the experimental part: The spheroid formation potential of HT29 human colon cancer cell line was evaluated in 3D nonadherent culture condition. Initially the HT29 human cells were grown as a monolayer after which they were counted, re-suspended and plated with 1,500 cells per well in a 96-well plate pre-coated with a thin layer of 1.5% agarose (w/v) in McCoy's 5A medium containing 10% FBS and incubated at 37° C. in a humidified atmosphere of 5% CO2. Cell culture media was replaced every 2-3 days with fresh medium to remove cellular debris and the spheroids that were not well-formed. After the beginning of the multicellular tumor spheroid formation, the tested compounds were added at various concentrations (0.2, 0.4 and 0.6 mg/ml) and incubated for 24, 48 and 72 h. The number and diameter of colonies within each well were photographed and counted every day under the microscope (Olympus BX-51; Olympus, Hamburg, Germany), and the images of the representative fields were captured. Each sample was analyzed in triplicate, and all the experiments were performed three times. The viability of cells growing on the spheroids was measured by the APH (acid phosphatase) assay, which was performed according to manufacturer's instructions.
The cellular assays described above were performed in a monolayer system. Although monolayer systems partially reflect the microenvironment of cancer cells, there are currently more advanced culture methods that mimic in a better way the cellular interactions by the cells comprising the tumor (Freidrich, J. et. al.; Nat. Prot. 2009, 4, 309-324). […] This assay can be applied to test whether the compounds treatment is able of impairing tumors formation or alternately to test the effect of the treatment in growing tumors. HT-29 cell line was used for this model due to its capacity to form spheroids in vitro.

For a further experiment, the system named is leukemia. To be noted: Dimas et al. 2000; cited from earlier work.
Experiment [1] concerns methicillin-resistant Staphylococcus aureus. To be noted: Ibrahim et al. 2009; cited from earlier work.

The text below walks through data of patent US11344567B2, “Methods of treating cancer using platanoside and isomers thereof” (SHARE GAL RESEARCH AND DEVELOPMENT LTD, priority 2018, dated 2022).

As to `O=C1C[C@@H](c2ccc(O)cc2)Oc2cc(O)cc(O)c21` [naringenin], the “effect on tumor formation, treatment before tumor formation” value with HT-29 cell line is on record as “no effect”. As to `O=C(O)/C=C/c1ccc(O)cc1` [p-coumaric acid], the “effect on tumor formation, treatment before tumor formation” value in the experiment with HT-29 cell line is on record as “no effect”. `C[C@@H]1O[C@@H](Oc2c(-c3ccc(O)cc3)oc3cc(O)cc(O)c3c2=O)[C@H](OC(=O)/C=C/c2ccc(O)cc2)[C@H](OC(=O)/C=C/c2ccc(O)cc2)[C@H]1O` [Platanoside, platanoside]: in the experiment with leukemia, the anti-leukemic activity entry was “active as an anti-leukemic agent”. In addition, the “anti-methicillin-resistant Staphylococcus aureus activity” value in experiment [1] is given as “anti-methicillin-resistant Staphylococcus aureus”. On to `N.N.O=C([O-])C1(C(=O)[O-])CCC1.[Pt+2]` [carboplatin], for which, in the experiment with HT-29 cell line, the “effect on growing tumors, treatment after spheroid formation” value is recorded as “didn't generate any effect”. In the case of `CCc1c2c(nc3ccc(OC(=O)N4CCC(N5CCCCC5)CC4)cc13)-c1cc3c(c(=O)n1C2)COC(=O)[C@]3(O)CC` [irinotecan], the “effect on growing tumors, treatment after spheroid formation” value in the experiment on HT-29 cell line was “didn't generate any effect”.
